Experimental data from ChEMBL document CHEMBL1201862, “PubChem BioAssay data set” (2004).
Activity calls are given as the source filed them.

Legend:
[1] = molecular target: T1, Mannose-6-phosphate isomerase (Homo sapiens, UniProt P34949); experiment: phosphomannose isomerase inhibition – biochemical, fluorescence intensity, confirmation (AID 1535)
T1 sequence (P34949 whole entry): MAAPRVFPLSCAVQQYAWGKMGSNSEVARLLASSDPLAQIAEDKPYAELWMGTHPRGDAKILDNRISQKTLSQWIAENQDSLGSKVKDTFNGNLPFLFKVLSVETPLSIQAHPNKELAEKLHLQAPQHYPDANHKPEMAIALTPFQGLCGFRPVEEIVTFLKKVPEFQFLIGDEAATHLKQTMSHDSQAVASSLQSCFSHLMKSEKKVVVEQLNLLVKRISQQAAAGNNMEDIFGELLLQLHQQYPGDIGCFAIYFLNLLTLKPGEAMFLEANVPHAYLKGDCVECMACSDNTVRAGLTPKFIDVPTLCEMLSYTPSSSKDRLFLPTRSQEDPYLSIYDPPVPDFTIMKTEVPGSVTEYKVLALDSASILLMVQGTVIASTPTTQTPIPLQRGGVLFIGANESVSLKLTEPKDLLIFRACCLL

Phosphomannomutase 2 = molecular target: T2, Phosphomannomutase 2 (Homo sapiens, UniProt O15305); experiment: Counter screen SAR assay for PMM2 inhibitors via a fluorescence intensity assay. [Related pubchem assays (depositor defined):AID1545, AID1574]
T2 sequence (O15305 whole entry): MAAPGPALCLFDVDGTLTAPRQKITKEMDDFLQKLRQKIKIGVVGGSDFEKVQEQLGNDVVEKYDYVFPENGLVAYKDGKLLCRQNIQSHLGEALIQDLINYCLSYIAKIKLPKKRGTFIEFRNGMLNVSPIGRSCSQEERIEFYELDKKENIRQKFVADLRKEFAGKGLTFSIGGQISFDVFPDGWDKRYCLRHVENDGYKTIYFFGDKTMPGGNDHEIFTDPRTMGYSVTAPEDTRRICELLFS

[2] = molecular target: Phosphoethanolamine/phosphocholine phosphatase (Homo sapiens, UniProt Q8TCT1); experiment: SAR assay for compounds that inhibit PHOSPHO1. [Related pubchem assays (depositor defined):AID1545, AID1565, AID1574]
Protein Rev = Protein Rev (Human immunodeficiency virus type 1 group M subtype B (isolate HXB2)(HIV-1), UniProt P04618); experiment: blockers of HIV Rev/RRE RNA complex – biochemical, fluorescence polarization, HIV-1, dose response (AID 434976); set-up: species or system Human immunodeficiency virus 1
[3] = molecular target: Female germline-specific tumor suppressor gld-1 (Caenorhabditis elegans, UniProt Q17339); experiment: blockers of GLD-1/TGE RNA complex formation – biochemical, fluorescence polarization, C. elegans, dose response (AID 2802);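 note: fluorescence polarization of labeled TGE RNA bound by purified gld-1 protein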
[4] = molecular target: T3, Alkaline phosphatase, tissue-nonspecific isozyme (Homo sapiens, UniProt P05186)
T3 sequence (P05186 whole entry): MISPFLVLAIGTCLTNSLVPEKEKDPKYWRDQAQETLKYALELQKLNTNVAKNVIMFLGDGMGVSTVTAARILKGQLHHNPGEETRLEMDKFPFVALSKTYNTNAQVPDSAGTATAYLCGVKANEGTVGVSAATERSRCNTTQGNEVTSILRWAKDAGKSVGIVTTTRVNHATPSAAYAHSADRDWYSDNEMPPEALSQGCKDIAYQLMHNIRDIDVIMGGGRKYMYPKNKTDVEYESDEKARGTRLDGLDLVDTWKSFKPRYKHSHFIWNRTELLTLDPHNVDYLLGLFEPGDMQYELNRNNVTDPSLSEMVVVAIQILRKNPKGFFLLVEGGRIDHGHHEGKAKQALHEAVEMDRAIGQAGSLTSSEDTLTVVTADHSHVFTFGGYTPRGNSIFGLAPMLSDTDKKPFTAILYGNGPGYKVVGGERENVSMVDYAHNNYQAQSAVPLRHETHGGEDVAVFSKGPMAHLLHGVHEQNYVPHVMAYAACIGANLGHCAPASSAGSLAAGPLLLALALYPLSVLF

[5] = Trypanosoma cruzi growth suppression in host cells – NIH3T3 host cells, beta-gal luminescence, confirmation (AID 2044); type: functional, cell-based;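 note: intracellular parasites grown in NIH/3T3 mouse fibroblasts as host cells; luminescent beta-galactosidase reporter signal from transgenic T. cruzi replicating inside host cells; inhibitors lower the luminescence signal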
[6] = NIH3T3 cell viability loss – ATP luminescence, mouse fibroblasts, counter-screen, dose response (AID 2010); type: functional, cell-based;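 note: cells exposed to compound for about 90 hours before reading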
[7] = molecular target: Intestinal-type alkaline phosphatase (Homo sapiens, UniProt P09923); experiment: activation of human intestinal alkaline phosphatase – biochemical, dose response (AID 488873); type: functional
[8] = molecular target: Intestinal-type alkaline phosphatase (Mus musculus, UniProt P24822); experiment: PubChem AID 488785; type: functional
[9] = molecular target: T3, Alkaline phosphatase, tissue-nonspecific isozyme; experiment: TNAP enzyme inhibition by screening hits, dose response, selectivity assay for mouse IAP inhibitor project, biochemical, human TNAP, uHTS hits (AID 488906); type: functional
[10] = molecular target: T4, DNA dC->dU-editing enzyme APOBEC-3A (Homo sapiens, UniProt P31941); experiment: A3A deaminase inhibition for selectivity – biochemical, dose response (AID 504722); type: functional
[11] = molecular target: T5, DNA dC->dU-editing enzyme APOBEC-3G (Homo sapiens, UniProt Q9HC16); experiment: Dose Response confirmation of small molecule APOBEC3G DNA Deaminase Inhibitors via a fluorescence-based single-stranded DNA deaminase assay. [Related pubchem assays (depositor defined):AID493012, AID493028]; type: functional
[12] = molecular target: T4, DNA dC->dU-editing enzyme APOBEC-3A; experiment: Dose Response confirmation of small molecule APOBEC3A DNA Deaminase Inhibitors via a fluorescence-based single-stranded DNA deaminase assay. [Related pubchem assays (depositor defined):AID493011, AID493024]; type: functional
[13] = molecular target: T5, DNA dC->dU-editing enzyme APOBEC-3G; type: functional
cells = type: functional, cell-based
[14] = molecular target: T6, Nuclear receptor subfamily 0 group B member 1 (Homo sapiens, UniProt P51843); type: functional, cell-based;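 note: HEK293T cells transfected with SF-1 and DAX-1 plus StAR promoter luciferase reporter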
T6 sequence (P51843 whole entry): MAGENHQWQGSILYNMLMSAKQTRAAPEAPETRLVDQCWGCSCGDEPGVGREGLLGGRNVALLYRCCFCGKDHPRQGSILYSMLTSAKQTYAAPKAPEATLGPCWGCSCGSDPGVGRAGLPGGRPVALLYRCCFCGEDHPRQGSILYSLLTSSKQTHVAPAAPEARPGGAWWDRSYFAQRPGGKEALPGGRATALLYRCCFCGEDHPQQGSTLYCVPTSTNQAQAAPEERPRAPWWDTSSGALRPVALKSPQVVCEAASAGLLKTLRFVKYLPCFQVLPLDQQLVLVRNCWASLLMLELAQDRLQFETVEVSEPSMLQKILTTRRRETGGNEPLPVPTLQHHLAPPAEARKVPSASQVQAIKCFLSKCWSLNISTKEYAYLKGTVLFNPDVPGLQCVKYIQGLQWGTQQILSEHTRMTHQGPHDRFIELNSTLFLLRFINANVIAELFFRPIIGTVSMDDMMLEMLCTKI

[15] = toxicity toward HepG2 liver cells – cell-based, plate reader, cherry-pick, antagonist series, cytotoxicity control, dose response (AID 743416); type: functional
[16] = blockers of bursicon-stimulated LGR2 cAMP reporter – cell-based, HEK293, CRE-luciferase reporter, cherry pick, set 2, dose response (AID 743343); type: functional;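 note: transfected cells were stimulated with diluted bursicon conditioned medium after compound addition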
[17] = blockade of melanocortin 4 receptor signaling – cell-based, plate reader, cherry pick, counter-screen for LGR2 antagonist project, dose response (AID 743444); type: functional;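 note: transfected HEK 293 cells stimulated with alpha-MSH peptide; potency of inhibitors of the alpha-MSH evoked signal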

T4 sequence (P31941 whole entry): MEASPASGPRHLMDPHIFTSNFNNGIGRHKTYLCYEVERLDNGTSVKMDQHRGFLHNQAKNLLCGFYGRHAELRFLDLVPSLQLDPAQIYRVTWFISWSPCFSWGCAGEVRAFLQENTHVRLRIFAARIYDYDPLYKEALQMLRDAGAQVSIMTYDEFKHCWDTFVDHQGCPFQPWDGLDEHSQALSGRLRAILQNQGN
T5 sequence (Q9HC16 whole entry): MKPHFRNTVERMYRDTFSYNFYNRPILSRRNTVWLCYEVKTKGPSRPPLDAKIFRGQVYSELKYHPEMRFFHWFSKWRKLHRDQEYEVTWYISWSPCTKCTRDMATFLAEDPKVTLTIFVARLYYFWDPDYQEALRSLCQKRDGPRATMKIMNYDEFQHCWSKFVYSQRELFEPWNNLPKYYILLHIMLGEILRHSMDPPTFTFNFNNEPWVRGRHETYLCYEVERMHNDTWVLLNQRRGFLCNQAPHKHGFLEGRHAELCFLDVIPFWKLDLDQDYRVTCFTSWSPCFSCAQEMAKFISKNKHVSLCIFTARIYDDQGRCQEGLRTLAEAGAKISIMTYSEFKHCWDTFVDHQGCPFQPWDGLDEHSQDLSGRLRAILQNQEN
Sequence of Protein Rev (P04618 whole entry): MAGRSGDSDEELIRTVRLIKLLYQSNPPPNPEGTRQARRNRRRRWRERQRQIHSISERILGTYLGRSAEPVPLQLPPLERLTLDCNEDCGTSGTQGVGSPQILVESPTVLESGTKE
Sequence of Intestinal-type alkaline phosphatase (Homo sapiens, UniProt P09923) (P09923 whole entry): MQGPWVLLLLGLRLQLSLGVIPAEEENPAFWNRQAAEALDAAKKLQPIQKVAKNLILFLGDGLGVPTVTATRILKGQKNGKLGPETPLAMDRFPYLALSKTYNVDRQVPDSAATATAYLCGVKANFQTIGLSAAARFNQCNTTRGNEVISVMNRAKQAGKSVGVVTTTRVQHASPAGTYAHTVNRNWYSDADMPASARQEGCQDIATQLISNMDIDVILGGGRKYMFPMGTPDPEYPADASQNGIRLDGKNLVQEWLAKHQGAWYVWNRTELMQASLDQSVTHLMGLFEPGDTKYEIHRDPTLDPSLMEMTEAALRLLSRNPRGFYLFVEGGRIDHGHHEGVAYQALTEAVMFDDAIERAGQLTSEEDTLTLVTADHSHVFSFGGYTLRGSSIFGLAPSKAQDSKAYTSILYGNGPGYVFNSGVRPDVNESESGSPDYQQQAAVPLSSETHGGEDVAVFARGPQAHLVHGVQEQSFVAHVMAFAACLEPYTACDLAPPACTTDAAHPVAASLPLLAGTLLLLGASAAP
Sequence of Phosphoethanolamine/phosphocholine phosphatase (Q8TCT1 whole entry): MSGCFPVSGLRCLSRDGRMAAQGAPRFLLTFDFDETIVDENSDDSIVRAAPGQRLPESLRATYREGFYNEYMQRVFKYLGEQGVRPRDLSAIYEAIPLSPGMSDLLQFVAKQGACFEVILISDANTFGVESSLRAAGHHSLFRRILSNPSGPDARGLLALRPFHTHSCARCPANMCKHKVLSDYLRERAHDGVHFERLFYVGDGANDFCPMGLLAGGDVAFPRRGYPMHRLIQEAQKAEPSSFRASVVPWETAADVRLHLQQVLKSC
Sequence of Female germline-specific tumor suppressor gld-1 (Q17339 whole entry): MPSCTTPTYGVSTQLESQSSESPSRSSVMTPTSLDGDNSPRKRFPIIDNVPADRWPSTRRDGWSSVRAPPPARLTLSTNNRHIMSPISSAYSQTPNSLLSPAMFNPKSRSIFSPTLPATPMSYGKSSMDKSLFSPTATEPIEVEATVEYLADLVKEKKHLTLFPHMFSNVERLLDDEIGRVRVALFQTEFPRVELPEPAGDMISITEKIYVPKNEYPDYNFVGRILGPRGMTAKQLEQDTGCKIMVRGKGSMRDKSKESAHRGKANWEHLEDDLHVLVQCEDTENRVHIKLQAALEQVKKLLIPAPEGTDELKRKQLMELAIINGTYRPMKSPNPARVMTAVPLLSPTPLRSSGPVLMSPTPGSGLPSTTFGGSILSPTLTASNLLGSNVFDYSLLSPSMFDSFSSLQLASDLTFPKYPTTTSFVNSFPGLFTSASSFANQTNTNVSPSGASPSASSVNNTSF
Sequence of Intestinal-type alkaline phosphatase (Mus musculus, UniProt P24822) (P24822 whole entry): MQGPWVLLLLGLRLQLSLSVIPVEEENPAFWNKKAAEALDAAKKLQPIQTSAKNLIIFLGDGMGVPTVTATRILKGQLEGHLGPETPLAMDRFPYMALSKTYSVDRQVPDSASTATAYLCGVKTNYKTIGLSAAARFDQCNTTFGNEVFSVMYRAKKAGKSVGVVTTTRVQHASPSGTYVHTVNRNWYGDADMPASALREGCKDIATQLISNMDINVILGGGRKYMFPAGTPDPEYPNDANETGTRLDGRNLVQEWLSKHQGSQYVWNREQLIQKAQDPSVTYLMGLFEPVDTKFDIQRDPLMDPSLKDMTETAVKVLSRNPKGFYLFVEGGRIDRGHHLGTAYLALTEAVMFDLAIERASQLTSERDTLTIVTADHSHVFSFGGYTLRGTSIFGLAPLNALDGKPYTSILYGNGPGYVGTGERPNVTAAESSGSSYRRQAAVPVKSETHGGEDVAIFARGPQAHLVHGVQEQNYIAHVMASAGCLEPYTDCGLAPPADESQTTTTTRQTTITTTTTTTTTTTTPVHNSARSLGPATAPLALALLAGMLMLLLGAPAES

Which results are given for O=c1c2ccccc2sn1-c1cccc(C(F)(F)F)c1?
IC50 [1]: 23.7 µM (active); IC50 (Phosphomannomutase 2): > 100 µM (inactive); IC50 [2]: 11.6 µM (inactive)

Which IC50 (Protein Rev) does the source give for CC(C)CCN(C(=O)CCCSc1nc2ccccc2[nH]1)c1c(N)n(Cc2ccccc2)c(=O)[nH]c1=O here?
Its IC50 is > 8.38 µM (active).

And the IC50 [3]?
The IC50 was 3.12 µM (active).

For CCOC(=O)c1ccc(N2CCN(c3ccccc3F)CC2)c(NC(=O)Nc2cccc(OC)c2)c1, which EC50 [4] is on record?
The EC50 was > 100 µM (not active).

And the EC50 [5]?
The EC50 was 1.39 µM (active).

And the EC50 [6]?
Its EC50 is > 60 µM (inconclusive).

And the EC50 [7]?
The EC50 was > 100 µM (inactive).

And the IC50 [8]?
Its IC50 is 6.54 µM (active).

What about the IC50 [9] of the same compound?
Its IC50 is > 100 µM (inactive).

For COc1ccc(OCc2nnc(S)n2Cc2ccco2)cc1, which IC50 [10] is on record?
Its IC50 is > 100 µM (inactive).

What about the IC50 [11] of the same compound?
The IC50 was 3.88 µM (active).

With COc1ccc2sc(NC(=O)c3ccco3)nc2c1 as the compound, how does the IC50 [12] read?
The IC50 was 17.3 µM (active).

What about the IC50 [13] of the same compound?
Its IC50 is 10.3 µM (active).

And the IC50 (cells)?
The IC50 was > 67.5 µM (inactive).

What about the IC50 [14] of the same compound?
The IC50 was > 67.5 µM (inactive).

And the AC50 [15]?
Its AC50 is > 52 µM (inactive).

And the AC50 [16]?
Its AC50 is 7.49 µM (active).

What about the AC50 [17] of the same compound?
Its AC50 is 8.55 µM (active).
